The text below walks through data of EP3723745B1, “PHENOXY ACIDS FOR THE TREATMENT OF NEUROMUSCULAR DISORDERS” (NMD Pharma A/S, priority 2017, dated 2019).

Assay [1] deals with soleus muscles. The assay can be described thus: Measurement of force in an in vitro model: isolated rat nerve-muscle preparation with tubocurarine. As to conditions: Rattus norvegicus, 40 min; percentage of initial force restored after 40 mins with 50 µM test compound; tubocurarine (115 nM) for 90 mins; read-out: Point increase. As to the method:
Recovery of force is quantified as the percentage of the force prior to tubocurarine that is recovered by the compound.
The current invention relates to compounds that inhibit CIC-1 ion channels and increase muscle excitability and thereby improve muscle function in clinical conditions where muscle activation is failing. Such conditions result in loss of contractile function of skeletal muscle, weakness and excessive fatigue. In this series of experiments the compounds were tested for their ability to restore contractile function of isolated rat muscle when the neuromuscular transmission had been compromised akin to neuromuscular disorders.
Experimentally, soleus muscles from 4-5 wk old rats were isolated with the motor nerve remaining attached. The nerve-muscle preparations were mounted in experimental setups that enabled electrical stimulation of the motor nerve. Stimulation of the motor nerve led to activation of the muscle fibres and ensuing force production that was recorded.
After mounting the nerve-muscle preparation in the experimental setup, the contractile function of the muscle was initially assessed under the control conditions (Figure 2A). […] The experimental condition mimics the failing neuromuscular transmission in a range of neuromuscular disorders. After addition of tubocurarine the contractile force declined over the next 90 mins to 10-50 % of the control force. 50 µM of the test compound was then added and the contractile force recovered despite the continued presence of tubocurarine. To quantify the ability of the compound to restore force the percentage of the initial force that was restored was determined after 40 mins of compound exposure (Figure 2B) and the point increase is reported in Table 3. Table 3: Percentage increase of initial force that was restored using compounds of the invention

Assay [2] concerns female Lewis rats. Nature of the assay: Measurement of in situ muscle contractile characteristics (isometric hindlimb force, cisatracurium block). In kind it is in vivo, rat. The conditions noted are these: for average increase in twitch peaks: 12 Hz; for average increase in twitch peaks / average increase in tetanic force: cisatracurium infusion; for average increase in tetanic force: 80 Hz; for restore force to muscles in vivo: muscles partially inhibited by a neuromuscular blocker, summary in words. As to the method:
Isometric hindlimb force was measured in 12-week old female Lewis rats in the presence and absence of compound.
Rats were placed under anesthesia with isoflurane (2-4%), intubated and subsequently connected to a micro ventilator (Microvent 1, Hallowell EMC, US). Two stimulation electrodes were inserted through the skin to stimulate the sciatic nerve. A small incision was made proximal to the ankle, to expose the Achilles tendon, which was tied by cotton string, and connected to a force transducer (Fort250, World Precision Instruments) with adjustable position (Vernier control). The Achilles tendon was then cut distal to the attached cotton string. The rat was placed on a heated pad, and to prevent movement artefacts from contraction of the ankle dorsiflexors, the foot was fixated by tape on a footplate.
Muscle contractile properties were assessed by applying an electrical current (under supramaximal voltage conditions) to the nerve and recording the force generated by the muscle. The muscle was stretched until maximal force was obtained, when assessed by 2 Hz stimulation. Isometric force was measured every 30 seconds at 12 Hz (Twitch), 10 pulses, and at every 5 minutes at 80 Hz (Tetanic) for 1 second (80 pulses). This stimulation pattern was employed throughout the experiment, expect in few cases where 80 Hz stimulation was replaced by 12 Hz (10 pulses). […] When the level of neuromuscular inhibition was stable, the test article was injected i.v. at the chosen concentration. The effect of test article was assessed on its ability to increase force generated from the stimulation pattern applied. The effect was assessed in the ability to increase force per se (tetanic, 80 Hz, stimulation), and the ratio between individual twitch peaks (12 Hz stimulation). The effect was monitored for at least 1 hour after injection of test article. In addition, the time from injection of test article to maximal effect on force (both twitch and tetanic) was noted and the time for the effect to disappear (return to baseline), if possible. When appropriate the infusion of neuromuscular blocking agent was ceased, with the stimulation pattern continued, and the return of force to control levels was monitored. Animals were sacrificed by cervical dislocation while still fully sedated.

Assay [3] has as its target T1, CIC-1 channels (Rattus norvegicus, UniProt P35524).
T1 construct: from tissue; host or cells: intact soleus muscle of 12-14-week old Wistar rats
T1 sequence (P35524 1-994): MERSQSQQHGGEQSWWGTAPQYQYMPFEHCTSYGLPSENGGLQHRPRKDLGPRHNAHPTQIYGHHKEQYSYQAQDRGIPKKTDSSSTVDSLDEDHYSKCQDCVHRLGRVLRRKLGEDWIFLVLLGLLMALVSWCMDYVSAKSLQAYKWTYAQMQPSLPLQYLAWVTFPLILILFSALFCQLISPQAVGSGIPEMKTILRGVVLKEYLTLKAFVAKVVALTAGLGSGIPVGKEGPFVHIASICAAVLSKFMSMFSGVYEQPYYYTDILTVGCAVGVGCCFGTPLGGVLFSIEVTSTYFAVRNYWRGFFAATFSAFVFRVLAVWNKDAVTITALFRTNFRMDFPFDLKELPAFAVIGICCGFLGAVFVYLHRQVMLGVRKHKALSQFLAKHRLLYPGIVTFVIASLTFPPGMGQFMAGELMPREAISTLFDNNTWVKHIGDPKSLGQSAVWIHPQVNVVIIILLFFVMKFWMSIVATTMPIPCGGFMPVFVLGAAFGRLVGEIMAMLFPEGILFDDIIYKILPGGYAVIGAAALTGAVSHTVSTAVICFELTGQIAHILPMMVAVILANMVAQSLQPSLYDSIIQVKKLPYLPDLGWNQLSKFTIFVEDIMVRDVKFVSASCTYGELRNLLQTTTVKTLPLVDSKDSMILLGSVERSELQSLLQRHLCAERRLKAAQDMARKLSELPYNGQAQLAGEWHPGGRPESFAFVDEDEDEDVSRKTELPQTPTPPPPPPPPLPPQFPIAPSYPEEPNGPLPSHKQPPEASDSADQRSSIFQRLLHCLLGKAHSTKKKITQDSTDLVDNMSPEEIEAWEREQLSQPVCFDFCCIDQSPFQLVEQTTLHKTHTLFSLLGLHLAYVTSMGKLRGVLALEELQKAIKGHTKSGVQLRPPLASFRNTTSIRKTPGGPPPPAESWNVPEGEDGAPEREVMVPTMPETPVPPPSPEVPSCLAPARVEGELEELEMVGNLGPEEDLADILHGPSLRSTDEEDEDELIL
Nature of the assay: Electrophysiological measurement of compound inhibition of CIC-1 in rat muscle (Gm, three micro-electrodes technique). In kind it is cell-based. As to conditions: reduction of Gm in fibres of whole rat soleus muscles, approx. 30°C; n = number of experiments. From the text: Table 2: Inhibition of CIC-1 ion channel using compounds of the invention

In assay [4] the target is T2, human CIC-1 channels (Homo sapiens, UniProt P35523).
T2 construct: host or cells: CHO cells constitutively expressing human ClC-1
T2 sequence (P35523 whole entry): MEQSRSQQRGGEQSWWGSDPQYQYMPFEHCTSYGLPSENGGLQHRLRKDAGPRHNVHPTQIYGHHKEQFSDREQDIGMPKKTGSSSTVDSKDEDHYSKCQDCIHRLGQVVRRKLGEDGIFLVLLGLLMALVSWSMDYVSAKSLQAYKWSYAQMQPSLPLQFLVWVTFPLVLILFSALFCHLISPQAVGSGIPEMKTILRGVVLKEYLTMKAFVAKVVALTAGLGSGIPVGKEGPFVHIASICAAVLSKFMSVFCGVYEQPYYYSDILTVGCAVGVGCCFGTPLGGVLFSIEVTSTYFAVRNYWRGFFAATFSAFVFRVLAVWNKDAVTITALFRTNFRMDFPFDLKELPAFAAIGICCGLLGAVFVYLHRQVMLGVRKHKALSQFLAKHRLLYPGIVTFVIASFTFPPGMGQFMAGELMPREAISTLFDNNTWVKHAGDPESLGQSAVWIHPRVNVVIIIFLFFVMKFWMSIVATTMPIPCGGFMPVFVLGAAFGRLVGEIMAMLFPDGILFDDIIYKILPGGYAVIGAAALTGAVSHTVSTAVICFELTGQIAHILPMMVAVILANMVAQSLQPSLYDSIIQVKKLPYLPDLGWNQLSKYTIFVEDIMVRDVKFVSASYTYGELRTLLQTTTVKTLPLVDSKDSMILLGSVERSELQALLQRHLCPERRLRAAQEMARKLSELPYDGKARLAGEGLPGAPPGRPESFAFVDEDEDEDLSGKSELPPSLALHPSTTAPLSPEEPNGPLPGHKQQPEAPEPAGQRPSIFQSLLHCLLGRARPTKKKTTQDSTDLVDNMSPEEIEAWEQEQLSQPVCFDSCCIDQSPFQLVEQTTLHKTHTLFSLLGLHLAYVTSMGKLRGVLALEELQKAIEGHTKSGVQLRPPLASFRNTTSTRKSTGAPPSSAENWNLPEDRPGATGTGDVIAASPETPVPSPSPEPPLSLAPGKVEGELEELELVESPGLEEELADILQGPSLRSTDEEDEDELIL
The assay can be described thus: Automated patch-clamp on human CIC-1 expressed in CHO cells. In kind it is cell-based. The conditions noted are these: difference in half activation voltage, compound added intracellularly vs control cell patches; positive shift = CIC-1 inhibition. As to the method: The investigatory goal of these experiments was to evaluate how compounds affect the open probability and current amplitude of human CIC-1 channels expressed in CHO cells. Experiments were performed using an automated patch clamp system that allowed high throughput testing of whole cell patches together with both intracellular and extracellular addition of compound.
Automated whole cell patch clamp experiments were performed with the Qpatch 16 system (Sophion Bioscience, Ballerup, Denmark) at room temperature. Data acquisition and analysis were performed in the Qassay software (ver. 5.6, Odense).
To evoke CIC-1 currents in whole cell patches, the membrane potential was initially stepped from a holding potential of -30 mV to +60 mV for 100 ms and then to various test voltages (sweeps) ranging from +120 mV to -140 mV in steps of 20 mV for 300 ms. To obtain tail currents, the membrane potential was stepped to -100 mV after each test voltage for 300 ms and then relaxed to -30 mV for 2 sec between sweeps (Figure 3). I/V relationships for whole cell instant and steady state current amplitudes were obtained by plotting average current densities at the beginning and at the end of the 300 ms step against the membrane potential (Figure 4).
In order to determine the relative overall open probability (P0), the instantaneous tail currents were normalized to the maximal tail current obtained following the most positive voltage step and plotted against the test voltage. Plots of normalized tail currents from each whole cell patch were then fitted to a Boltzmann function allowing determination of half activation voltages (V1/2, Figure 5).
For automated patch clamp experiments extracellular solutions contained: 2 mM CaCl2, 1 mM MgCl2, 10 mM HEPES, 4 mM KCI, 145 mM NaCl, 10 mM Glucose, pH adjusted to 7.4 with NaOH (2 M). Osmolality adjusted to -320 using sucrose.
Intracellular solutions contained: 80 mM CsF, 60 mM CsCI, 5/1 mM KOH/EGTA, 10 mM HEPES, 10 mM NaCl, pH adjusted to 7.2 with NaOH (2 M). Osmolality adjusted to -320 mOsm using sucrose.
Cells used in patch clamp experiments were Chinese hamster ovary cells (CHO) constitutively expressing human CIC-1 channels. The amino acid sequence encoded by the cDNA used to create this cell line was identical to the translated sequence for GenBank accession number NM_000083.2. Cells were produced by Charles River (Catalogue CT6175, Cleveland OH, USA) in a cryopreserved format. Experiments were performed on the cells directly after thawing (3 × 10^6 cells used in each experiment).
To evaluate the compound effect on CIC-1, when applied directly to the intracellular side of the cell membrane, the half activation voltage, V1/2, was determined from whole cell patches with compound added to the intracellular solution and then compared to V1/2 determined from control cell patches with only vehicle added to the intracellular solution. Additionally, the effect of extracellular added compound was evaluated by determine V1/2 and steady state current amplitudes before and after exchanging the extracellular solution to contain compound.
The difference in half activation voltage of CIC-1 channels, ΔV1/2, was determined as the difference between the cell patches treated intracellularly with compound and control cells patches and is reported in Table 4 below. A positive shift in ΔV1/2 is reflecting CIC-1 channel inhibition by the tested compound. P-values of <0.05 is considered significant. […]

In general, EC50 refers to the midpoint of the concentration-response curve. Low values mean higher potency in that assay, high ones lower potency in that assay.

Consider `C[C@H](Oc1ccc(Br)cc1F)C(=O)O` [Compound A-31, (2S)-2-(4-bromo-2-fluorophenoxy)propanoi c acid], for which the activation at 50 µM in assay [1] amounted to 42%. Besides, in assay [2] (20 mg/kg i.v.), the “average increase in twitch peaks” value is 7.3% and the “average increase in tetanic force” value is reported as 29.8%. In assay [2], the “restore force to muscles in vivo” value is given as “can restore force”. In assay [3], this molecule came in with an EC50 of 7.2 ± 2.8 µM.

For `COC[C@H](Oc1ccc(Br)cc1Br)C(=O)O` [Compound A-74, (2S)-2-(2,4-dibromophenoxy)-3-methoxypropanoic acid], the activation at 50 µM in assay [1] came out at 42%. Also, the ΔV1/2 in assay [4] was found to be 10.4 mV. Moreover, the response in assay [3] was half-maximal at 4 ± 0.1 µM (EC50).

For `O=C(O)[C@H](CCF)Oc1ccc(Br)cc1F` [Compound A-85, (2S)-2-(4-bromo-2-fluorophenoxy)-4-fluorobutanoic acid], the activation at 50 µM in assay [1] is 37%. Further, the ΔV1/2 in assay [4] is reported as 12.5 mV. Moreover, in assay [3], the EC50 was 10 ± 9.5 µM.

`O=C(O)[C@@H](Oc1ccc(Br)cc1F)C1CC1` [Compound A-89, (2S)-2-(4-bromo-2-fluorophenoxy)-2-cyclopropylacetic acid]: the activation at 50 µM in assay [1] turned out to be 33%. Besides, the ΔV1/2 in assay [4] came to 10.3 mV. In addition, the EC50 in assay [3] was determined as 8.7 ± 1.4 µM.

Consider `C[C@@H](F)[C@H](Oc1ccc(Br)cc1)C(=O)O` [Compound A-94, (2R,3R)-2-(4-bromophenoxy)-3-fluorobutanoic acid], for which, in assay [1], the activation at 50 µM was 31%. Besides, in assay [2] (21 mg/kg i.v.), the “average increase in twitch peaks” value is recorded as 11.5% and the “average increase in tetanic force” value was 34.8%. In assay [2], the “restore force to muscles in vivo” value is listed as “can restore force”. This molecule had an EC50 in assay [3] of 12 ± 3.2 µM.

With `C[C@@H](F)[C@H](Oc1ccc(Br)cc1F)C(=O)O` [Compound A-95, (2R,3R)-2-(4-bromo-2-fluorophenoxy)-3-fluorobutanoic acid], the activation at 50 µM in assay [1] came out at 39%. In addition, in assay [4], the ΔV1/2 came out at 10.3 mV. In assay [3], this molecule came in with a half-maximal effective concentration (EC50) of 12.5 ± 1.4 µM.
